Columns and labels:
rat splenocytes = experiment: Differentiation of rat splenocytes into allospecific CTL in vitro; type: cell-based; details: initial studies
Experimental: Therefore, we tested whether splenocytes obtained from rats treated with the peptides in vivo could differentiate into CTL ex vivo. In preliminary studies, the half-life of the B7.75-84 peptide was determined to be 2–3 hours in rats.

[1] = system: popliteal lymph node cells; experiment: Lymph node proliferation assay (footpad injection of splenocytes); type: in vivo, rat; details: treated within 24 hours of footpad injection; compared with approximately 3:1
Experimental: ACI or PVG rats (200 g) were injected intravenously with peptides dissolved in saline on day 0. On the indicated days thereafter, the left rear footpads of the rats were injected with 5×10^6 splenocytes from a syngeneic donor and the right rear footpads with 5×10^6 splenocytes from an allogeneic Lew donor (Moeller et al. Transplantation (1993) 55:650). See also Twist and Barnes Transplantation (1973) 15:182; Fanslow et al. Science (1990) 248:739). Seven days after the footpad injection, the animals were sacrificed and the popliteal lymph nodes removed. A single cell suspension was prepared, and the cell number determined using a hemocytometer.
PVG or ACI rats (3 per group) were given a single intravenous injection of 2 mg of each of the four peptides or saline. On the day of treatment, or on days 1, 7, or 10 after treatment, the right footpads were injected with 5×10^6 syngeneic splenocytes while the left footpads were injected with 5×10^6 allogeneic Lew splenocytes. Seven days after the footpad injections, the draining lymph nodes were removed, a single cell suspension was prepared, and the cell number determined.

cardiac allograft = experiment: Heterotopic cardiac allograft survival, Lew donor to ACI recipient; type: in vivo, rat; details: peptide in two weeks before or 4 days after surgery plus CsA on days 0–4
From the text: Vascularized cardiac allografts were heterotypically transplanted into the abdomen of recipient rats using a modification of the technique of Ono and Lindsay (Ono and Lindsey J. Thorac. Cardiovasc. Surg. (1969) 57:225). Abdominal allografts were palpated on a daily basis to assess graft function, and rejection was deemed complete when palpable ventricular contractions ceased.
Cyclosporin A (CsA, Sandoz Pharmaceuticals Corporation, Base, Switzerland) dissolved in olive oil was given orally through a gavage tube at the indicated dose. Peptides were dissolved in water or saline and given intravenously or by gavage as indicated.
Since the B7.75-84 and B2702.75-84 peptides blocked cellular immunity in vivo, we examined their effects on allograft survival in rats. ACI (RT1^a) recipients were given abdominal heterotopic heart allografts from Lew donors (Moeller et al. 1993, supra; Ono and Lindsey. 1969, supra). Graft function was monitored by daily abdominal palpation, and rejection was scored as complete when the palpable ventricular contractions ceased.

murine heart allograft = experiment: Murine heart allograft survival, C57B1/6 donor to CBA recipient; type: in vivo, mice
Experimental: Following the procedure set forth in Example 2C, daily administration of B2702.75-84 (80 mg/kg/day:ip) to CBA mice with (H-2^k) recipients of a C57B1/6 with (H-2^b) murine heart allograft prolonged graft survival to 11.4±2.6 days compared to 7.5±1.2 days in untreated control animals (n=8; p<0.01, Mann-Whitney U Test). The therapy using the same compound starting at day 5 after transplantation, prolonged graft survival to 9.2±0.4 days (n=5; p<0.02) indicating the subject composition could be useful in an ongoing rejection episode. In combination with a subtherapeutic dose of cyclosporin A (2.7 mg/kg/day; ip; day 0–4) the subject peptide prolonged graft survival to at least 45 days (3 grafts out of 4 still beating) compared to a median graft survival of 14 days in animals that received cyclosporin A monotherapy.
When the B2702.75-84 was prepared as the D-isomer (all amino acids in the D-form) and administered to murine graft recipients at 10 mg/kg/day (ip; day 0–10), graft survival was prolonged to more than 22 days in 4 out of 5 animals (4 grafts out of 5 still beating).

Sequence: RENLRIALRY [B2702.75–84]
- blocking of differentiation of rat splenocytes into allospecific CTL in vitro (rat splenocytes): blocked the differentiation
- ratio of cells recovered from side injected with allogeneic versus syngeneic cells [1]: A similar ratio
- rejection of transplants with peptide plus CsA (cardiac allograft): rejected similarly to allografts in animals treated with CsA alone
- graft survival (murine heart allograft; 80 mg/kg/day ip daily, untreated 7.5±1.2 days, n=8): 11.4 ± 2.6 days
- graft survival (murine heart allograft; peptide plus subtherapeutic cyclosporin A 2.7 mg/kg/day ip day 0–4): at least 45 days
- graft survival (murine heart allograft; therapy starting at day 5 after transplantation, n=5): 9.2 ± 0.4 days

Source: patent US7011834B1, “Immunomodulating dimers” (The Board of Trustees of Leland Stanford Junior University, priority 1987, dated 2006)
